This is an account of results in US8541601B2, “Piperazine dithioctate and pharmaceutical composition comprising the same” (Celltrion Chemical Research Institute, priority 2009, dated 2013).

The format of data set [1] is physicochemical. Particulars: for remaining rate of the active ingredient, Initial: 0 h; for remaining rate of the active ingredient, 3 days: 72 h; for remaining rate of the active ingredient, 7 days: 168 h; for remaining rate of the active ingredient, 14 days: 336 h; for remaining rate of the active ingredient, 28 days: 672 h.
Data set [2] has as its system rats. The note with it: rat, in vivo; cited from earlier work.

With `O=C(O)CCCCC1CCSS1` (racemic) [Piperazine dithioctate, Piperazine Dithioctate], in data set [1], the “remaining rate of the active ingredient, Initial” value (“remaining rate … Initial” for short) is given as 100.0; the remaining rate of the active ingredient, 3 days was determined as 100%; the remaining rate of the active ingredient, 7 days was found to be 100%; the remaining rate of the active ingredient, 14 days is 100%. The same compound gave a remaining rate of the active ingredient, 28 days in data set [1] of 100%.

`O=C(O)CCCCC1CCSS1` (stereo not shown) [Thioctic acid]: in data set [1], the “remaining rate … Initial” value was determined as 100.0; the remaining rate of the active ingredient, 3 days was found to be 99.8%; the remaining rate of the active ingredient, 7 days was 99.6%; the remaining rate of the active ingredient, 14 days was found to be 98.9%. In data set [1], this compound displayed a remaining rate of the active ingredient, 28 days of 97.8%.

On to `NC(CO)(CO)CO.O=C(O)CCCCC1CCSS1` (stereo not shown) [Tromethamine thioctate, Tromethamine Thioctate], for which, in data set [1], the “remaining rate … Initial” value was determined as 100.0; the remaining rate of the active ingredient, 3 days was found to be 100%; the remaining rate of the active ingredient, 7 days amounted to 100%; the remaining rate of the active ingredient, 14 days was found to be 100%. The same compound displayed a remaining rate of the active ingredient, 28 days in data set [1] of 100%.

Turning to `C1CNCCN1` [piperazine], the “LD50 (the lethal dose causing death in 50% of rats on oral administration)” value in data set [2] is on record as 1900 mg/kg.
